# Experimental data taken from patent US20170107207A1, “AMINOPYRAZOLONE DERIVATIVE” (DAIICHI SANKYO COMPANY, LIMITED, priority 2014, published 2017).
# Columns and labels:
# [1] = tested on: human lymphoma cell line RAMOS cells; assay: Cell growth inhibition test using RAMOS cell, MTT assay; assay type: cell-based; details: 50% growth inhibition concentration
# Procedure: A cell growth inhibition test was carried out by treating human lymphoma cell line RAMOS cells with a test compound for a given period and then counting the number of viable cells by MTT assay or CellTiter-Glo Luminescent Cell Viability Assay (manufactured by Promega Corp.; hereinafter, referred to as ATP assay).
# RAMOS cells were suspended in a medium (RPMI1640 medium containing 10% fetal bovine serum). The cell suspension was inoculated at 5000 cells/150 μL/well to a 96-well multiwell plate. The test compound was dissolved in DMSO, and this solution was diluted with medium to prepare a sample solution (DMSO concentration: 1% or lower). Subsequently, test compound-free medium or the sample solution was added thereto at 50 μL/well. The MTT assay was carried out at the day of addition of the sample solution or the DMSO dilution to the cells and after culture at 37° C. for 3 days under 5% CO2 of the cells supplemented with the sample solution or the medium. The MTT assay was carried out as follows.
# A 5 mg/mL solution of MTT (3-(4,5-dimethylthiazol-2-yl)-2,5-diphenyltetrazolium bromide, Sigma-Aldrich Corp., M-2128) was prepared using a phosphate buffered solution (Dulbecco's phosphate-buffered saline). This MTT solution was added at 20 μL/well to the plate. Then, the plate was incubated at 37° C. for 4 hours under 5% CO2. The plate was centrifuged at 1200 rpm for 5 minutes, and then, the culture supernatant was removed by suction using a dispenser. DMSO was added thereto at 150 μL/well to dissolve formed formazan. […] from each well was rendered uniform by the stirring of the plate using a plate mixer. The absorbance of each well was measured using a plate reader under conditions involving OD of 540 nm and reference of 660 nm.
# The number of viable cells and absorbance (hereinafter, referred to as an OD value) have been confirmed to correlate with each other. Therefore, the rate of cell growth was calculated according to the following expression: Rate of cell growth (T/C %) of a test compound-supplemented well=100×[(B−C)/(A−C)] wherein A represents the OD value (final culture date) of a test compound-free well; B represents the OD value (final culture date) of a test compound-containing well; and C represents the OD value (day of cell inoculation) of a well at the start of contact of the cells with the test compound.
# T/C % at each concentration of the test compound was determined. The concentration at which the test compound offered 50% growth rate was calculated as a 50% growth inhibition concentration (GI50) value from the growth rates at two points interpolating 50% and the concentrations, and is shown in Table 56.
# TIP48/TIP49 complex = target: T1, TIP48/TIP49 complex (Homo sapiens, UniProt Q9Y230+Q9Y265); assay: ATPase assay of TIP48/TIP49 complex (ADP-Glo); assay type: biochemical; details: concentration at which the ATPase activity was inhibited by 50%
# T1 construct: made in house; host or cells: E. coli
# Summary of the method: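 Recombinant human TIP48 and TIP49 expressed in E. coli (24.5 μg/mL final) were incubated 1.5 h at room temperature with compound (0.0007–200 μM, 2% DMSO) in Tris-HCl pH 7.5 buffer containing MgCl2 and ATP. ADP formed was detected by ADP-Glo luminescence; inhibition came from dose-response curves.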
# [2] = tested on: human lymphoma cell line RAMOS cells; assay: Cell growth inhibition test using RAMOS cell, ATP assay (CellTiter-Glo); assay type: cell-based; details: Homo sapiens, 72 h, cultured 3 days, 50% growth inhibition concentration
# Summary of the method: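 RAMOS cells seeded at 4000 cells/well with compound and cultured 3 days at 37° C, 5% CO2; viability by CellTiter-Glo luminescence. Growth rate T/C % = 100×[(B−C)/(A−C)] using day-0 and final readings; GI50 interpolated from the two concentrations bracketing 50% growth.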
# T1 sequence (Q9Y230 whole entry): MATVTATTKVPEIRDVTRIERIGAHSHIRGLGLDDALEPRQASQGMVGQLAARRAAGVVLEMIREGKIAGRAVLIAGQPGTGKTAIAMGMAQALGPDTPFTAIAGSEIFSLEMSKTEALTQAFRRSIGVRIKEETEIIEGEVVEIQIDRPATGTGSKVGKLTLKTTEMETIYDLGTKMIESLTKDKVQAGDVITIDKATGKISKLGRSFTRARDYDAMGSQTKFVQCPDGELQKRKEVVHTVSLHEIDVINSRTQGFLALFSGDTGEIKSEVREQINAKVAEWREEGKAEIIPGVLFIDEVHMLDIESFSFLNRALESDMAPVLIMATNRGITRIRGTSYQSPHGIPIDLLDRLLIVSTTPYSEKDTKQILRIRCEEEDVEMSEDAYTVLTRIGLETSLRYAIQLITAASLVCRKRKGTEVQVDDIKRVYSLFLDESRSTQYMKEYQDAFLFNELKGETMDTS
# T1 sequence (Q9Y265 whole entry): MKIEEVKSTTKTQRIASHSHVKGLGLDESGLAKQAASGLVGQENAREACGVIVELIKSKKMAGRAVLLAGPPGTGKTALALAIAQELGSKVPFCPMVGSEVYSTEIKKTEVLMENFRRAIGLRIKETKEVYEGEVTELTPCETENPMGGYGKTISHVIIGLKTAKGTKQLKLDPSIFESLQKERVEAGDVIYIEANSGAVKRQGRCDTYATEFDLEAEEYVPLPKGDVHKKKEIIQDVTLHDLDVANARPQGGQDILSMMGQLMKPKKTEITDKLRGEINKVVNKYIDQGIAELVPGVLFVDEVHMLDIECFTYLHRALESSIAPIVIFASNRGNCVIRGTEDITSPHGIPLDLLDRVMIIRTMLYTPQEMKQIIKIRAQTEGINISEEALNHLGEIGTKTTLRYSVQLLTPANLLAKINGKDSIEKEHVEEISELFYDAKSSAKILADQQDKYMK
SMILES,GI50 [1] [nM],IC50 (TIP48/TIP49 complex) [nM],GI50 ([2]; Ramos) [nM],GI50 [2] [nM]
"COc1ccc(Cl)cc1C(=O)NCC(C)(C)CC(=O)Nc1c(CN(C)C)n(C)n(-c2ccccc2)c1=O [Example 5, 5-Chloro-N-[4-({5-[(dimethylamino)methyl]-1-methyl-3-oxo-2-phenyl-2,3-dihydro-1H-pyrazol-4-yl}amino)-2,2-dimethyl-4-oxobutyl]-2-methoxybenzamide]",180,170,–,–
"COc1cc(F)c(Cl)cc1C(=O)NCC(C)(C)CC(=O)Nc1c(CN(C)C)n(C)n(-c2ccccc2)c1=O [Example 6, 5-Chloro-N-[4-({5-[(dimethylamino)methyl]-1-methyl-3-oxo-2-phenyl-2,3-dihydro-1H-pyrazol-4-yl}amino)-2,2-dimethyl-4-oxobutyl]-4-fluoro-2-methoxybenzamide]",170,150,–,–
"COc1ncc(Cl)cc1C(=O)NCC(C)(C)CC(=O)Nc1c(CN(C)C)n(C)n(-c2ccccc2)c1=O [Example 7, 5-Chloro-N-[4-({5-[(dimethylamino)methyl]-1-methyl-3-oxo-2-phenyl-2,3-dihydro-1H-pyrazol-4-yl}amino)-2,2-dimethyl-4-oxobutyl]-2-methoxypyridine-3-carboxamide]",470,110,–,–
"COc1ccc(Cl)cc1C(=O)NCC(C)(C)CC(=O)Nc1c(CN(C)CCO)n(C)n(-c2ccccc2)c1=O [Example 8, 5-Chloro-N-(4-[(5-{[2-hydroxyethyl(methyl)amino]methyl}-1-methyl-3-oxo-2-phenyl-2,3-dihydro-1H-pyrazol-4-yl)amino]-2,2-dimethyl-4-oxobutyl)-2-methoxybenzamide]",170,96,–,–
"CCOc1ncc(Cl)cc1NC(=O)CC(C)(C)CC(=O)Nc1c(C(C)OC)n(C)n(-c2ccccc2)c1=O (centres unmarked) [Example 126, N-(5-Chloro-2-ethoxy-3-pyridyl)-N′-[5-(1-methoxyethyl)-1-methyl-3-oxo-2-phenyl-2,3-dihydro-1H-pyrazol-4-yl]-3,3-dimethylpentanediamide]",–,56,580,–
"CCc1c(NC(=O)CC(C)(C)CNC(=O)c2cc(Cl)ccc2OCOC)c(=O)n(-c2ccccc2)n1C [Example 127, 5-Chloro-N-{4-[(5-ethyl-1-methyl-3-oxo-2-phenyl-2,3-dihydro-1H-pyrazol-4-yl)amino]-2,2-dimethyl-4-oxobutyl}-2-(methoxymethoxy)benzamide]",–,55,130,–
"CCOc1ccc(Cl)cc1C(=O)NCC(C)(C)CC(=O)Nc1c(CCCCO)n(C)n(-c2ccccc2)c1=O [Example 130, 5-Chloro-2-ethoxy-N-(4-{[5-(4-hydroxybutyl)-1-methyl-3-oxo-2-phenyl-2,3-dihydro-1H-pyrazol-4-yl]amino}-2,2-dimethyl-4-oxobutyl)benzamide]",–,54,64,–
"CCOc1ccc(Cl)cc1C(=O)NCC(C)(C)CC(=O)Nc1c(CC(N)=O)n(C)n(-c2ccccc2)c1=O [Example 132, N-(4-{[5-(2-Amino-2-oxoethyl)-1-methyl-3-oxo-2-phenyl-2,3-dihydro-1H-pyrazol-4-yl]amino}-2,2-dimethyl-4-oxobutyl)-5-chloro-2-ethoxybenzamide]",–,100,120,–
"CCOc1ccc(Cl)cc1C(=O)NCC(CF)(CF)CC(=O)Nc1c(COC)n(C)n(-c2ccccc2)c1=O [Example 148, N-(2,2-Bis(fluoromethyl)-4-{[5-(methoxymethyl)-1-methyl-3-oxo-2-phenyl-2,3-dihydro-1H-pyrazol-4-yl]amino}-4-oxobutyl)-5-chloro-2-ethoxybenzamide]",–,83,230,–
"CCOc1ccc(Cl)cc1C(=O)NCC(C)(C)CC(=O)Nc1c(CCC(F)(F)F)n(C)n(-c2ccccc2)c1=O [Example 158, 5-Chloro-N-(2,2-dimethyl-4-{[1-methyl-3-oxo-2-phenyl-5-(3,3,3-trifluoropropyl)pyrazol-4-yl]amino}-4-oxobutyl)-2-ethoxybenzamide]",–,33,310,–
"CCOc1cc(F)c(Cl)cc1C(=O)NCC(C)(C)C(C)C(=O)Nc1c(COC)n(C)n(-c2ccccc2)c1=O (centres unmarked) [Example 159, 5-Chloro-2-ethoxy-4-fluoro-N-(4-{[5-(methoxymethyl)-1-methyl-3-oxo-2-phenyl-2,3-dihydro-1H-pyrazol-4-yl]amino}-2,2,3-trimethyl-4-oxobutyl)benzamide]",–,77,–,840

# Continued by falling IC50 (TIP48/TIP49 complex), values first:
GI50 [1] [nM],IC50 (TIP48/TIP49 complex) [nM],GI50 ([2]; Ramos) [nM],SMILES,GI50 [2] [nM]
480,210,–,"COc1cc(F)c(Cl)cc1NC(=O)CC(C)(C)CC(=O)Nc1c(CN(C)C)n(C)n(-c2ccccc2)c1=O [Example 9, N-(5-Chloro-4-fluoro-2-methoxyphenyl)-N′-{5-[(dimethylamino)methyl]-1-methyl-3-oxo-2-phenyl-2,3-dihydro-1H-pyrazol-4-yl}-3,3-dimethylpentanediamide]",–
–,81,500,"CCOc1ccc(Cl)cc1C(=O)NCC(C)(C)CC(=O)Nc1c(CCC(=O)N2CCCC2)n(C)n(-c2ccccc2)c1=O [Example 133, 5-Chloro-N-(2,2-dimethyl-4-{[1-methyl-3-oxo-5-(3-oxo-3-pyrrolidin-1-ylpropyl)-2-phenyl-2,3-dihydro-1H-pyrazol-4-yl]amino}-4-oxobutyl)-2-ethoxybenzamide]",–
–,62,130,"CCOc1ccc(Cl)cc1C(=O)NCC(C)(C)CC(=O)Nc1c(CC(=O)OC)n(C)n(-c2ccccc2)c1=O [Example 131, Methyl 2-[4-({4-[(5-chloro-2-ethoxybenzoyl)amino]-3,3-dimethylbutanoyl}amino)-2-methyl-5-oxo-1-phenyl-2,3-dihydro-1H-pyrazol-3-yl]acetate]",–
130,60,–,"CCOc1ccc(Cl)cc1C(=O)NCC(C)(C)CC(=O)Nc1c(CCN(CC)CC)n(C)n(-c2ccccc2)c1=O [Example 17, 5-Chloro-N-[4-({5-[2-(diethylamino)ethyl]-1-methyl-3-oxo-2-phenyl-2,3-dihydro-1H-pyrazol-4-yl}amino)-2,2-dimethyl-4-oxobutyl]-2-ethoxybenzamide]",–
850,54,–,"COc1ccc(CN(C)Cc2c(NC(=O)CC(C)(C)CNC(=O)c3cc(Cl)ccc3OC)c(=O)n(-c3ccccc3)n2C)c(OC)c1 [Example 3, 5-Chloro-N-{4-[(5-{[(2,4-dimethoxyphenylmethyl)-methylamino]methyl}-1-methyl-3-oxo-2-phenyl-2,3-dihydro-1H-pyrazol-4-yl)amino]-2,2-dimethyl-4-oxobutyl}-2-methoxybenzamide]",–
–,52,190,"CCOc1ccc(Cl)cc1C(=O)NCC(C)(C)CC(=O)Nc1c(CCCC(=O)N(C)C)n(C)n(-c2ccccc2)c1=O [Example 129, 5-Chloro-N-[4-({5-[4-(dimethylamino)-4-oxobutyl]-1-methyl-3-oxo-2-phenyl-2,3-dihydro-1H-pyrazol-4-yl}amino)-2,2-dimethyl-4-oxobutyl]-2-ethoxybenzamide]",–
170,48,–,"CNCc1c(NC(=O)CC(C)(C)CNC(=O)c2cc(Cl)ccc2OC)c(=O)n(-c2ccccc2)n1C [Example 4, 5-Chloro-N-(2,2-dimethyl-4-{[1-methyl-5-(methylaminomethyl)-3-oxo-2-phenyl-2,3-dihydro-1H-pyrazol-4-yl]amino}-4-oxobutyl)-2-methoxybenzamide]",–
45,14,–,"CCOc1ccc(Cl)cc1C(=O)NCC(C)(C)CC(=O)Nc1c(CCNC(=O)OC(C)(C)C)n(C)n(-c2ccccc2)c1=O [Example 10, tert-Butyl N-{2-[4({4-[(5-chloro-2-ethoxybenzoyl)amino]-3,3-dimethylbutanoyl}amino)-2-methyl-5-oxo-1-phenyl-2,3-dihydro-1H-pyrazol-3-yl]ethyl}carbamate]",–
